Experimental data reported in patent publication US11235023B2, “Beta-hairpin peptidomimetic with elastase inhibitory activity and aerosol dosage forms thereof” (POLYPHOR AG, priority 2016, dated 2022).
Read-outs that look alike come from different tables or passages of the source. Non-standard residues stand in square brackets, D forms with d. Residues, ends and D or L forms follow the SMILES beside them. Gly(octyl) = CCCCCCCC[C@H](N)C(=O)O

How the values were obtained:
[1] = GLP-compliant 28-day inhalation toxicity study in rats; assay type: in vivo, rat
Method: In a GLP-compliant 28-day inhalation toxicity study in rats, conducted by Charles River Laboratories Preclinical Services, Tranent, Edinburgh, UK, the formulation described in Example 2 and dilutions thereof as well as the vehicle were administered using the Pari eFlow® XL 30 nebulizer device (Pari Pharma, Starnberg, Germany) for 100 min per day for 28 days, followed by a 2-week recovery period. […] Ten animals were used for the main toxicity study, and 5 additional animals for the recovery phase. Parameters assessed included clinical signs, body weights, food consumption, ophthalmic examination, clinical pathology, gross necropsy findings, organ weights and histopathologic examinations. […] This was associated with reduction in food consumption in treated animals. There was a good recovery in body weight gain during the recovery period between day 28 and 42.

[2] = First-in-man study in healthy subjects, safety and tolerability of orally inhaled single doses; assay type: in vivo, human
Description: In this randomised, double-blind, placebo-controlled, parallel-group (per dose level) dose-escalation study of inhaled single doses in 48 healthy subjects in six dose groups of eight subjects each, conducted by Inamed GmbH, Gauting, Germany, the controlled oral inhalation of the formulation described in Example 1 and dilutions thereof as well as the placebo (0.5% [w/w] aqueous sodium chloride solution adjusted to pH 5.5 with 1 M HCl pharmaceutical grade) occurred via the Pari eFlow® XL 30 nebulizer device (Pari Pharma GmbH, Starnberg, Germany). The dose levels and corresponding concentrations of cyclo(-OctG-Glu-Thr-Ala-Ser-Ile-Pro-Pro-Gln-Lys-Tyr-^DPro-Pro-) (active compound) are summarized in Table 10.
The volume of placebo nebulizer solution corresponded to that of the active compound at a particular dose level. The duration of inhalation depended on the total volume of nebulizer solution and ranged between several minutes and roughly one hour. Adverse events were tabulated and summarized according to the current version of Medical Dictionary for Regulatory Activities.

neutrophil elastase = test: LPS/fMLP model of neutrophil activation in the rat, neutrophil elastase activity in BAL supernatant; assay type: in vivo; conditions: for NE activity: BAL 6 h post LPS, mean ± s.e.m., vehicle 0.25 ± 0.02
[3] = Phase-Ib study in CF patients, plasma pharmacokinetics (LC-MS/MS); assay type: in vivo; conditions: human, inhaled or intranasal; for Tmax: inhalation, CF patients; for level at 24 h: read-out: mean plasma concentration 24 hours after inhalation; for half-life: read-out: mean terminal half-life (plasma) (converted)
Method: AUC0-∞, AUC0-∞/D, Cmax, Cmax/D of active compound in plasma as primary variables and tmax, t1/2, λ2, […] of active compound in plasma as secondary variables.
Blood samples for the determination of the plasma concentrations of active compound were taken at the following points in time:
On Day 1 at pre-dose, 10 min, and 0.5 h, 1 h, 2 h, 3 h, 4 h, 6 h, 8 h, 12 h, 15 h, and on Day 2 at 24 h post dose (after start of inhalation).
The samples were collected in closed K3-EDTA plasma sampling tubes (Monovette® Sarstedt, Germany). The accepted time-interval for sample handling procedures for each individual study sample, i.e., the time between sample collection and sample centrifugation had not to exceed 60 min, and the time between the end of centrifugation and sample freezing had also not to exceed 60 min.
The samples were centrifuged at approximately 4° C. (±2° C.) at 2200×g for 15 min.
The resulting plasma supernatant was then transferred into 2 polypropylene tubes (1st aliquot of at least 1 mL and backup) and frozen in upright position below […]
For the analysis of active compound in plasma, a validated and highly sensitive liquid chromatography tandem mass spectrometry (LC-MS/MS) method was used.
The pharmacokinetic parameters mentioned above were calculated based on actual blood and sputum sampling times using non-compartmental procedures.

SMILES: CCCCCCCC[C@@H]1NC(=O)[C@@H]2CCCN2C(=O)[C@H]2CCCN2C(=O)[C@H](Cc2ccc(O)cc2)NC(=O)[C@H](CCCCN)NC(=O)[C@H](CCC(N)=O)NC(=O)[C@@H]2CCCN2C(=O)[C@@H]2CCCN2C(=O)[C@H]([C@@H](C)CC)NC(=O)[C@H](CO)NC(=O)[C@H](C)NC(=O)[C@H]([C@@H](C)O)NC(=O)[C@H](CCC(=O)O)NC1=O [active compound, cyclo(-OctG-Glu-Thr-Ala-Ser-Ile-Pro-Pro-Gln-Lys-Tyr-^DPro-Pro-)] (cyclo([Gly(octyl)]ETASIPPQKY[dP]P))
- NOAEL at 28 days ([1]; in vivo, inhaled or intranasal, rat, inhalation 100 min per day for 28 days, read-out: No Observed Adverse Effect Level (NOAEL)): 119 mg/kg/day
- Body weight gain ([1]; male rats at 119 mg/kg/day vs vehicle control): Slightly reduced
- Clinical signs and ophthalmic findings ([1]; rat, 11, 53 and 119 mg/kg/day): no clinical signs or ophthalmic findings
- Clinical pathology (haematology, coagulation, clinical chemistry, urinalysis) ([1]; rat, in vivo): no findings in clinical pathology
- Histopathology of the larynx ([1]; rat, in vivo): focal minimal squamous metaplasia without cellular atypia of dysplasia
- Histopathology of the lungs ([1]; rat, in vivo): minimal to moderate multifocal alveolar macrophage accumulation
- Deaths, serious and other significant adverse events ([2]; healthy subjects, single inhaled doses 20-960 mg): No death, no serious adverse events (AE) and no other significant AE
- Inhalation-related adverse events ('cough'), local tolerability ([2]; human, in vivo): three
- Number of subjects with AEs ([2]; human, in vivo): 13
- Number of treatment-emergent adverse events (TEAEs) ([2]; human, in vivo): 24
- Proportion of subjects with AEs ([2]; human, in vivo): 27.1%
- Subjects judging overall tolerability as 'very good' or 'good' ([2]; human, in vivo): 97.9%
- Effect on neutrophil elastase activity in BAL fluid (neutrophil elastase; 0.3, 3 and 30 mg/kg by inhalation 3 h post LPS, 1 h prior to fMLP): significantly inhibited
- Test item related clinical signs (neutrophil elastase; between dosing period and study termination): No test item related clinical signs were observed
- NE activity (neutrophil elastase; inhalation 0.3 mg/kg): 0.10 ± 0.01 mU/mL eq.
- NE activity (neutrophil elastase; inhalation 3 mg/kg): 0.11 ± 0.01 mU/mL eq.
- NE activity (neutrophil elastase; inhalation 30 mg/kg): 0.07 ± 0.01 mU/mL eq.
- Efficacy in previous intratracheal study (neutrophil elastase; intratracheal doses of 0.03 to 3 mg/kg): efficacious
- Tmax ([3]; dose group 1 (80 mg)): 1.3 h
- level at 24 h ([3]; dose group 1 (80 mg)): 2.8 ng/mL
- half-life ([3]; dose group 1 (80 mg)): 4.1 h
- Tmax ([3]; dose group 2 (160 mg)): 1.5 h
- level at 24 h ([3]; dose group 2 (160 mg)): 4.4 ng/mL
- half-life ([3]; dose group 2 (160 mg)): 3.5 h
- Tmax ([3]; dose group 3 (320 mg)): 2.3 h
- level at 24 h ([3]; dose group 3 (320 mg)): 15.2 ng/mL
- half-life ([3]; dose group 3 (320 mg)): 3.8 h
